Data reported in patent USRE48461E1, “Modulation of androgen receptor expression” (Ionis Pharmaceuticals, Inc., priority 2012, dated 2021).
Oligonucleotides are written 5' to 3', each unit as a sugar letter and its base; * is a phosphorothioate linkage, no mark a phosphodiester; rarer units and linkages stand in square brackets, end groups in braces. Plain capitals give the bases only. k = constrained ethyl (cEt); [5mC] = 5-methylcytosine; d = 2'-deoxy (DNA)

Assays:
AR mRNA [1] = experiment: Dose-dependent antisense inhibition of human AR in HuVEC cells (electroporation, qRT-PCR RTS3559, IC50); assay type: cell-based; settings: HuVEC
Method in brief: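 HuVEC cells dosed with antisense oligonucleotides by electroporation and treated approximately 16 hours. AR mRNA quantified by real-time qPCR with primer probe set RTS3559 and normalised to total RNA by RIBOGREEN; IC50 from dose-response.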

AR mRNA [2] = experiment: Antisense inhibition of human AR in HuVEC cells, single concentration (electroporation, qRT-PCR RTS3559); assay type: cell-based
Method in brief: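 HuVEC cells electroporated with antisense oligonucleotides at a single concentration. AR mRNA quantified by qRT-PCR using human primer-probe set RTS3559 and normalised to total RNA content by RIBOGREEN.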

[3] = 500 nM ASO, electroporation, ~24 h, Table 1
[4] = Table 29, electroporation, approximately 16 hours
[5] = Table 36, electroporation, approximately 16 hours
[6] = Table 24, 1,000 nM oligonucleotide, electroporation, approximately 24 hours, relative to untreated control
[7] = Table 30, electroporation, approximately 16 hours
[8] = Table 33, electroporation, approximately 16 hours
[9] = Table 35, electroporation, approximately 16 hours
[10] = Table 31, electroporation, approximately 16 hours

549332 (kG*k[5mC]*kG*d[5mC]*dT*d[5mC]*dT*dG*dA*d[5mC]*dA*dG*d[5mC]*k[5mC]*kT*k[5mC]; antisense) [compound 549332]
percent inhibition of AR (AR mRNA [1]; 55.6 nM, ~16 h, Table 4): 35% | percent inhibition of AR (AR mRNA [1]; 166.7 nM, ~16 h, Table 4): 57% | percent inhibition of AR (AR mRNA [1]; 500.0 nM, ~16 h, Table 4): 79% | percent inhibition of AR (AR mRNA [1]; 1500.0 nM, ~16 h, Table 4): 79% | IC50 (AR mRNA [1]; ~16 h, Table 4): 0.104 µM | % inhibition (AR mRNA [2]; [3]): 84%

583608 (antisense kG*k[5mC]*kT*dA*dG*d[5mC]*dT*d[5mC]*dG*d[5mC]*d[5mC]*d[5mC]*dG*k[5mC]*kT*k[5mC]) [compound 583608]
percent inhibition of AR, 46.9 nM (AR mRNA [1]; [4]): 12% | percent inhibition of AR, 187.5 nM (AR mRNA [1]; [4]): 46% | percent inhibition of AR, 750.0 nM (AR mRNA [1]; [4]): 67% | percent inhibition of AR, 3000.0 nM (AR mRNA [1]; [4]): 76% | IC50 (AR mRNA [1]; [4]): 0.35 µM | % inhibition (AR mRNA [2]; 500 nM ASO, ~24 h, Table 17): 51%

549361 (kG*kA*k[5mC]*dA*d[5mC]*d[5mC]*dG*dA*d[5mC]*dA*d[5mC]*dT*dG*k[5mC]*k[5mC]*kT; antisense) [compound 549361]
percent inhibition of AR (AR mRNA [1]; 55.6 nM, ~16 h, Table 3): 12% | percent inhibition of AR (AR mRNA [1]; 166.7 nM, ~16 h, Table 3): 30% | percent inhibition of AR (AR mRNA [1]; 500.0 nM, ~16 h, Table 3): 52% | percent inhibition of AR (AR mRNA [1]; 1500.0 nM, ~16 h, Table 3): 66% | IC50 (AR mRNA [1]; ~16 h, Table 3): 0.525 µM | % inhibition (AR mRNA [2]; [3]): 84%

584157 (kT*kT*kG*dA*dT*dG*dG*dA*dA*dT*dG*d[5mC]*dT*kG*kA*kT; antisense) [compound 584157]
percent inhibition of AR, 46.9 nM (AR mRNA [1]; [5]): 6% | percent inhibition of AR, 187.5 nM (AR mRNA [1]; [5]): 6% | percent inhibition of AR, 750.0 nM (AR mRNA [1]; [5]): 52% | percent inhibition of AR, 3000.0 nM (AR mRNA [1]; [5]): 82% | IC50 (AR mRNA [1]; [5]): 0.59 µM | % inhibition (AR mRNA [2]; [6]): 69%

583660 (antisense kG*kA*k[5mC]*dA*d[5mC]*dA*d[5mC]*dG*dG*dT*dG*dG*dA*k[5mC]*kA*kA) [compound 583660]
percent inhibition of AR, 46.9 nM (AR mRNA [1]; [4]): 21% | percent inhibition of AR, 187.5 nM (AR mRNA [1]; [4]): 39% | percent inhibition of AR, 750.0 nM (AR mRNA [1]; [4]): 61% | percent inhibition of AR, 3000.0 nM (AR mRNA [1]; [4]): 72% | IC50 (AR mRNA [1]; [4]): 0.42 µM | % inhibition (AR mRNA [2]; 500 nM ASO, ~24 h, Table 17): 44%

583688 (antisense kG*k[5mC]*kG*dG*dT*dA*dG*dT*d[5mC]*dG*d[5mC]*dT*dG*k[5mC]*kA*kG) [compound 583688]
percent inhibition of AR, 46.9 nM (AR mRNA [1]; [7]): 3% | percent inhibition of AR, 187.5 nM (AR mRNA [1]; [7]): 26% | percent inhibition of AR, 750.0 nM (AR mRNA [1]; [7]): 50% | percent inhibition of AR, 3000.0 nM (AR mRNA [1]; [7]): 60% | IC50 (AR mRNA [1]; [7]): 1.05 µM | % inhibition (AR mRNA [2]; 500 nM ASO, ~24 h, Table 18): 38%

583866 (kT*k[5mC]*kT*dT*d[5mC]*dA*dG*dT*dG*d[5mC]*dT*d[5mC]*dT*kT*kG*k[5mC]; antisense) [compound 583866]
percent inhibition of AR, 46.9 nM (AR mRNA [1]; [8]): 17% | percent inhibition of AR, 187.5 nM (AR mRNA [1]; [8]): 48% | percent inhibition of AR, 750.0 nM (AR mRNA [1]; [8]): 71% | percent inhibition of AR, 3000.0 nM (AR mRNA [1]; [8]): 91% | IC50 (AR mRNA [1]; [8]): 0.24 µM | % inhibition (AR mRNA [2]; Table 20, 500 nM oligonucleotide, electroporation, approximately 24 hours, relative to untreated control): 32%

584148 (k[5mC]*kA*kT*dA*dT*dT*dA*dT*dT*dG*dT*dG*d[5mC]*kT*kG*k[5mC]; antisense) [compound 584148]
percent inhibition of AR, 46.9 nM (AR mRNA [1]; [9]): 16% | percent inhibition of AR, 187.5 nM (AR mRNA [1]; [9]): 48% | percent inhibition of AR, 750.0 nM (AR mRNA [1]; [9]): 79% | percent inhibition of AR, 3000.0 nM (AR mRNA [1]; [9]): 95% | IC50 (AR mRNA [1]; [9]): 0.2 µM | % inhibition (AR mRNA [2]; [6]): 85%

583747 (antisense kG*k[5mC]*kT*dG*d[5mC]*dG*d[5mC]*dT*d[5mC]*dG*d[5mC]*dG*dG*k[5mC]*k[5mC]*kT) [compound 583747]
percent inhibition of AR, 46.9 nM (AR mRNA [1]; [10]): 13% | percent inhibition of AR, 187.5 nM (AR mRNA [1]; [10]): 38% | percent inhibition of AR, 750.0 nM (AR mRNA [1]; [10]): 50% | percent inhibition of AR, 3000.0 nM (AR mRNA [1]; [10]): 69% | IC50 (AR mRNA [1]; [10]): 0.64 µM | % inhibition (AR mRNA [2]; 500 nM ASO, ~24 h, Table 18): 35%
